Measurements from patent US12128035B2, “Activating pyruvate kinase R” (Novo Nordisk Health Care AG, priority 2021, dated 2024).
Several values for one entry are separate records, joined by “and”; a condition that tells them apart may be missing. Identical values can stand only once. Like-named read-outs stand apart in the source and are kept apart here.

Experiments:
[1] = intravenous (IV) bolus dose; cited from earlier work
[2] = cited from earlier work
[3] = Phase 1: hematologic and hemolytic laboratory parameters in SCD patients; type: in vivo, human; settings: for Hemoglobin / Indirect Bilirubin / Lactate Dehydrogenase, U/L / Reticulocytes, %: SCD 300 mg Compound 1/Placebo (blinded) once daily, individual Pt 1-3
From the text: Laboratory changes relative to pretreatment for each pt in the MD cohort as of Jul. In 2 of 3 SCD MD-1 pts treated with Compound 1/placebo (currently blinded), Hb increased by >1 g/dL, % reticulocytes decreased, and markers of hemolysis were improved after 14 days of treatment (compared to pre-treatment levels). Hematologic parameters returned to pre-treatment levels 4 to 7 days post-treatment (data not shown) without clinical AEs.
A median 1.2 g/dL Hb increase (range 0, 2.3) and a median 60% reticulocyte decrease (range −39%, −81%) over baseline were observed. The onset of the increase in Hb was rapid and continued to increase in most patients through the end of treatment, indicating the potential for additional improvement with extended dosing. […] A median 36% LDH decrease (range +18%, −57%) and a median 35% bilirubin decrease (range −7%, −63%) over baseline were observed, which is consistent with the hypothesis that Compound 1 improves RBC survival and reduces RBC turnover.

[4] = molecular target: T1, aromatase (Homo sapiens, UniProt P11511); settings: Yang et al. 2018; Grace et al. 2019; cited from earlier work
T1 construct: endogenous in cells; host or cells: H295R adreno-cortical carcinoma cells; healthy human subjects in vivo
T1 sequence (P11511 1-503): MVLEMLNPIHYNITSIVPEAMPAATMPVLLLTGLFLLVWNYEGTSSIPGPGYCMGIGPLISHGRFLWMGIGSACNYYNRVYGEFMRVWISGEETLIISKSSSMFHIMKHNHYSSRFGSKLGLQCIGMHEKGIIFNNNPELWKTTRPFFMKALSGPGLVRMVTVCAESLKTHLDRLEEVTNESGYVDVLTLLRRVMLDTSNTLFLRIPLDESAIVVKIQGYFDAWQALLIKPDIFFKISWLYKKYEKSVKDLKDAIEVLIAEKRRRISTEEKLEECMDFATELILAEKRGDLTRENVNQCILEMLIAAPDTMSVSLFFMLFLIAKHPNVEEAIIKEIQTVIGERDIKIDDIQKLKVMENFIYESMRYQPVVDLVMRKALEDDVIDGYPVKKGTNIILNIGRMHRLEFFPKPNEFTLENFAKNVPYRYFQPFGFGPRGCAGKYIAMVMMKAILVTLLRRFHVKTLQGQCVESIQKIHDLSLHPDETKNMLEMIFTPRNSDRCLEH

[5] = molecular target: PKR(R510Q) (Homo sapiens, UniProt P30613, R510Q); assay: Luminescence Assay (Kinase Glo Plus) of PKR activation; type: biochemical; settings: read-out: AC50 (PKRR510Q)
Chain of PKR(R510Q) (P30613 whole entry R510Q): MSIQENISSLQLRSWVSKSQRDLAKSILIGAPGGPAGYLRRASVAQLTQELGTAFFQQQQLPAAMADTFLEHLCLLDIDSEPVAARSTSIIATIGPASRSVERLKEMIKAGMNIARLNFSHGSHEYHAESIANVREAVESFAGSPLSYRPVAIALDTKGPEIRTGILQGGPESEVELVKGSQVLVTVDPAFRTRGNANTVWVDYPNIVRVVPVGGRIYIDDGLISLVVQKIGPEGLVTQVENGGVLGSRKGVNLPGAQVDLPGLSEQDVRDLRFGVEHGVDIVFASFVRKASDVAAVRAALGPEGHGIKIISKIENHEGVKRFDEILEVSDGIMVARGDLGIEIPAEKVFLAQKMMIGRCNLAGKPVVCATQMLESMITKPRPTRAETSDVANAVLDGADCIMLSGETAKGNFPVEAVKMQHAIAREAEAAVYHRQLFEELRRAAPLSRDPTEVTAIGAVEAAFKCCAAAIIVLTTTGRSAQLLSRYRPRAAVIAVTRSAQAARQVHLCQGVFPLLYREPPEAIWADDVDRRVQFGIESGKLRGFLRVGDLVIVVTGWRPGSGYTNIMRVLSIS
Protocol: (§1) PKR Activating Compounds can be identified with the biochemical Luminescence Assay of Example 2. The PKR activating activity of a series of chemical compounds was evaluated using the Luminescence Assay below, including compounds designated Compound 1, and Compound 2, or mixtures thereof.
(§2) For each tested compound, the ability to activate PKR was determined using the following Luminescence Assay. The effect of phosphorylation of adenosine-5′-diphosphate (ADP) by PKR is determined by the Kinase Glo Plus Assay (Promega) in the presence or absence of FBP (D-fructose-1,6-diphosphate; BOC Sciences, CAS: 81028-91-3) as follows. Unless otherwise indicated, all reagents are purchased from Sigma-Aldrich. All reagents are prepared in buffer containing 50 mM Tris-HCl, 100 mM KCl, 5 mM MgCl2, and 0.01% Triton X100, 0.03% BSA, and 1 mM DTT. Enzyme and PEP (phosphoenolpyruvate) are added at 2× to all wells of an assay-ready plate containing serial dilutions of test compounds or DMSO vehicle. Final enzyme concentrations for PKR (wt), PKR(R510Q), and PKR (G332S) are 0.8 nM, 0.8 nM, and 10 nM respectively. Final PEP concentration is 100 μM. The Enzyme/PEP mixture is incubated with compounds for 30 minutes at RT before the assay is initiated with the addition of 2×ADP and KinaseGloPlus. Final concentration of ADP is 100 μM. […] For assays containing FBP, that reagent is added at 30 μM upon reaction initiation. Reactions are allowed to progress for 45 minutes at RT until luminescence is recorded by the BMG PHERAstar FS Multilabel Reader. The compound is tested in triplicate at concentrations ranging from 42.5 μM to 2.2 nM in 0.83% DMSO. AC50 measurements were obtained by the standard four parameter fit algorithm of ActivityBase XE Runner (max, min, slope and AC50). The AC50 value for a compound is the concentration (μM) at which the activity along the four parameter logistic curve fit is halfway between minimum and maximum activity.
(§3) As set forth in Table 2 below, AC50 values are defined as follows: ≤0.1 μM (+++); >0.1 μM and ≤1.0 μM (++); >1.0 μM and ≤40 μM (+); >40 μM (0).

[6] = molecular target: PKR (wt) (Homo sapiens, UniProt P30613); assay: as above; type: biochemical
Chain of PKR (wt) (P30613 whole entry): as the sequence (P30613 whole entry R510Q) above, with Q510R counted along it
Protocol: as §1, §2, §3

[7] = molecular target: PKR (G332S) (Homo sapiens, UniProt P30613, G332S); assay: as above; type: biochemical; settings: read-out: AC50 (PKRG332S)
Chain of PKR (G332S) (P30613 whole entry G332S): as the sequence (P30613 whole entry R510Q) above, with G332S, Q510R counted along it
Protocol: as §1, §2, §3

[8] = whole blood, relative to fasted state

For `NC(=O)CC[C@H](N)C(=O)O` [L-glutamine, (S)-2-aminoglutaramic acid], the volume of distribution [1] is given as “approximately 200 mL/kg”.
For `CC(C)n1nccc1-c1ncccc1COc1cccc(O)c1C=O` [voxelotor, 2-hydroxy-6-((2-(1-isopropyl-1H-pyrazol-5-yl)pyridin-3-yl)methoxy)benzaldehyde], the “increase in AUC with high-fat, high-calorie meal” value ([2]; plasma) is given as 42%, the “increase in Cmax with high-fat, high-calorie meal” value ([2]; plasma) is given as 95% and the “steady state AUC higher in HbSC vs HbSS genotype patients” value ([2]; plasma) is given as 23%. For the same compound, the “steady state Cmax higher in HbSC vs HbSS genotype patients” value ([2]; plasma) was 15%, the “increase in AUC with high-fat, high-calorie meal” value [2, 8] was 42% and the “increase in Cmax with high-fat, high-calorie meal” value [2, 8] was 45%. For the same compound, the “steady state AUC higher in HbSC vs HbSS genotype patients” value ([2]; whole blood) was 50% and the “steady state Cmax higher in HbSC vs HbSS genotype patients” value ([2]; whole blood) was 45%.
With `O=C([C@H](CO)c1ccccc1)N1CC2=C(C1)CN(S(=O)(=O)c1cnc3c(c1)OCCO3)C2` [Compound 1/Placebo] the “Hemoglobin” value ([3]; Day 7 (on Tx)) was 7.9 g/dL and 10.4 g/dL and 8.8 g/dL, the “Indirect Bilirubin” value ([3]; Day 7 (on Tx)) was 2.5 mg/dL and 0.9 mg/dL and 0.8 mg/dL and the “Lactate Dehydrogenase, U/L” value ([3]; Day 7 (on Tx)) was 148 U/L and 257 U/L and 371 U/L. For the same compound, the “Reticulocytes, %” value ([3]; Day 7 (on Tx)) was 12.8% and 6.8% and 5.8%, the “Hemoglobin” value ([3]; Day 14/15 (EOT)) was 7.5 g/dL and 11.1 g/dL and 9.2 g/dL and the “Indirect Bilirubin” value ([3]; Day 14/15 (EOT)) was 3.0 mg/dL and 0.8 mg/dL and 1.0 mg/dL. For the same compound, the “Lactate Dehydrogenase, U/L” value ([3]; Day 14/15 (EOT)) was 192 U/L and 226 U/L and 279 U/L, the “Reticulocytes, %” value ([3]; Day 14/15 (EOT)) was 11.4% and 0.8% and 4.2% and the “patients with Hb increased by >1 g/dL” value ([3]; SCD MD-1, Compound 1/placebo (currently blinded), 14 days) was 2 of 3.
In the case of `O=C(c1ccc(NS(=O)(=O)c2cccc3cccnc23)cc1)N1CCN(CC2CC2)CC1` [AG-348], the aromatase inhibition [4] is given as “Aromatase inhibition has been observed”.
In the case of `O=C([C@@H](CO)c1ccccc1)N1CC2=C(C1)CN(S(=O)(=O)c1cnc3c(c1)OCCO3)C2` (single isomer, unassigned) [Compound 2], the AC50 [5] is reported as 1 to 40 µM, the AC50 [6] is reported as 1 to 40 µM and the AC50 [7] is reported as 1 to 40 µM.
